Assay results from PMC7246999 (International Journal of Molecular Sciences, 2020).

T1: hMPC-1 (Homo sapiens, UniProt Q9Y5U8)
T1 construct: HA tag (hemagglutinin, […]) (N); made in house; host or cells: Sf9 (Spodoptera frugiperda), baculovirus
T1 sequence (Q9Y5U8 1-109): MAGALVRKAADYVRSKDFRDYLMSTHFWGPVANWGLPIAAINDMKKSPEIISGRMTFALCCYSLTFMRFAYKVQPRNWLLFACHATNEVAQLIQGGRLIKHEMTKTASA

T2: hMPC-2 (Homo sapiens, UniProt O95563)
T2 construct: HA tag (hemagglutinin, […]) (N, cleaved yes); 10x His tag (N, cleaved yes); made in house; host or cells: Sf9 (Spodoptera frugiperda), baculovirus
T2 sequence (O95563 1-127): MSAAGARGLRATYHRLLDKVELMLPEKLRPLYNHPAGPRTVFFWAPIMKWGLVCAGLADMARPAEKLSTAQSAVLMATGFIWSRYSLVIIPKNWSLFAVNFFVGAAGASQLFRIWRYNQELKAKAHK

T3: hMPC-1/hMPC-2 (Homo sapiens, UniProt O95563+Q9Y5U8)
T3 construct: HA tag (hemagglutinin, […]) (N); HA tag (hemagglutinin, […]) (N, cleaved yes); 10x His tag (N, cleaved yes); made in house; host or cells: Sf9 (Spodoptera frugiperda), baculovirus; proteins purified singly, mixed 1:1, then FLAG-resin
T3 sequence (Q9Y5U8 1-109): T1 sequence (Q9Y5U8 1-109)
T3 sequence (O95563 1-127): T2 sequence (O95563 1-127)

B1: human mitochondrial pyruvate carrier 1 (hMPC-1), C-terminally tagged (natural protein, UniProt Q9Y5U8 1-109, looked up)
chain: T1 sequence (Q9Y5U8 1-109)
notes: human mitochondrial pyruvate carrier 1 (hMPC-1); Printed mass of His-hMPC-1: 15.9 kDa; also called His-hMPC-1; human MPC-1; source: Sf9 (baculovirus), purified in DDM (TALON IMAC, gel filtration); also co-expressed with hMPC-2 in Sf9 by co-infection; not shown: FLAG, C-terminal, kept; 10x His, C-terminal, kept

Tests used:
hMPC-1 = biological target: T1, hMPC-1; test: Fluorescence quenching binding assay, purified hMPC-1 homo-complex; details: hMPC-1 in DDM micelles, room temperature, fluorescence at 338 nm, n = 3; read-out: Dissociation constant (Kd)
Method: (§1) In vitro fluorescence quenching was performed to measure the binding affinity of the purified hMPCs to their ligands, such as the pyruvate substrate and inhibitors, to validate their function (Figure 4). First, the equilibrium dissociation constants (Kd) of the hMPCs to pyruvate substrates were measured (Figure 4A,D).
(§2) A fluorescence analysis was performed using a LS55 spectrofluorophotometer at room temperature (Perkin Elmer, Waltham, MA, USA). The protein sample was prepared in buffer containing 50 mM Tris-HCl, 300 mM NaCl, and 0.05% DDM with a final concentration of 0.07 mg/ mL. […] Pyruvate was titrated to hMPC-1, hMPC-2, and hMPC-1/hMPC-2 up to 200mM concentrations. In the case of […], it was titrated to hMPC-1, hMPC-2, and hMPC-1/hMPC-2 up to 300uM, 200uM, 200uM concentrations, respectively. Pioglitazone was titrated to hMPC-1, hMPC-2, and hMPC-1/hMPC-2 up to 400uM, 500uM, and 400uM concentrations, respectively. All data were collected in the wavelength range of 270–450 nm (shown from 300 nm to 450 nm only) with a 1-min delay for each titration point. The dissociation constants were calculated by the maximum intensities in the 338 nm wavelength of each spectrum.

hMPC-2 = biological target: T2, hMPC-2; test: Fluorescence quenching binding assay, purified hMPC-2 homo-complex; details: hMPC-2 in DDM micelles, room temperature, fluorescence at 338 nm, n = 3; read-out: Dissociation constant (Kd)
Method: as §1, §2

hMPC-1/hMPC-2 = biological target: T3, hMPC-1/hMPC-2; test: Fluorescence quenching binding assay, purified hMPC-1/hMPC-2 hetero-complex; details: for Kd: hMPC-1/hMPC-2 in DDM micelles, room temperature, fluorescence at 338 nm, n = 3, read-out: Dissociation constant (Kd)
Method: as §1, §2

[1] = biological target: the molecule itself; test: SEC; analytical SEC, HiLoad 16/600 Superdex 200 pg, 50 mM Tris-HCl (pH 7), 300 mM NaCl, 0.05% (w/v) DDM, 1 mL/min; proteins run alone or mixed 1:1 (mass ratio) at room temperature for 1 h; fractions on SDS-PAGE

Row | Molecule | Kd (hMPC-1) [mM] | Kd (hMPC-2) [mM] | Binding affinity of hetero-complex relative to homo-complex (hMPC-1/hMPC-2; hMPC-1/hMPC-2 hetero-complex higher than homo-complex) [fold] | Kd (hMPC-1/hMPC-2) [mM] | binding result [1]
1 | CC(=O)C(=O)O [Pyruvate] | 12 ± 0.77 | 12.9 ± 0.9 | 1.5 | 8.91 ± 1.09 | 
2 | CCc1ccc(CCOc2ccc(CC3SC(=O)NC3=O)cc2)nc1 (centres unmarked) [Pioglitazone] | 0.0841 ± 0.0103 | 0.0993 ± 0.0145 |  | 0.0603 ± 0.00611 | 
3 | B1 |  |  |  |  | binds
